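48-hour exposure; five concentrations; linearly interpolated endpoints. GI50: concentration for 50% inhibition of growth. TGI denotes the concentration required for complete inhibition of growth.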
Experiments:
Test in all cases: NCI-60 cell line screen, 48 h
SK-MEL-28 melanoma = tested on: SK-MEL-28 melanoma
EKVX NSCLC = tested on: EKVX NSCLC
SK-MEL-2 melanoma = tested on: SK-MEL-2 melanoma
NCI-H23 lung = tested on: NCI-H23 lung
OVCAR-4 ovarian = tested on: OVCAR-4 ovarian
SF-295 CNS = tested on: SF-295 CNS
U251 CNS = tested on: U251 CNS
HS 578T breast = tested on: HS 578T breast
786-0 renal = tested on: 786-0 renal
RPMI-8226 leukemia = tested on: RPMI-8226 leukemia

Compound	GI50 (SK-MEL-28 melanoma) [µM]	TGI (SK-MEL-28 melanoma) [µM]	GI50 (EKVX NSCLC) [µM]	TGI (EKVX NSCLC) [µM]	GI50 (SK-MEL-2 melanoma) [µM]	TGI (SK-MEL-2 melanoma) [µM]	GI50 (NCI-H23 lung) [µM]	TGI (NCI-H23 lung) [µM]	GI50 (OVCAR-4 ovarian) [µM]	TGI (OVCAR-4 ovarian) [µM]	GI50 (SF-295 CNS) [µM]	TGI (SF-295 CNS) [µM]	GI50 (U251 CNS) [µM]	TGI (U251 CNS) [µM]	GI50 (HS 578T breast) [µM]	TGI (HS 578T breast) [µM]	GI50 (786-0 renal) [µM]	TGI (786-0 renal) [µM]	GI50 (RPMI-8226 leukemia) [µM]	TGI (RPMI-8226 leukemia) [µM]
Cn1nc(C(F)(F)F)cc1-c1c[nH]c(OCc2ccc(Cl)cc2)c(-c2ccc(Cl)c(C(F)(F)F)c2)c1=O	1.07	3.97	1.39	> 50	0.761	2.52	1.05	5.95	1.43	> 50	0.887	2.18	1.27	> 17.5	1.07	3.85	1.25	4.37	0.547	2.24
C#CCN(Cc1nc2cc(C(F)(F)F)ccc2nc1-c1ccccc1)c1ccc(C)cc1	13.9	> 41	29.1	> 62.1	6.19	34.5	8.48	> 34.7	> 24.9	> 43.2	4.78	> 31.8	11.6	> 38.1	10.2	> 54.4	15.5	> 42.8	> 48.5	> 76.3
CCc1nc(N)nc(N)c1-c1ccc2nnn(O)c2c1		> 100		> 100		> 100		> 100		> 100		> 100		> 100		> 100		> 100		> 100
N=C(N)SCc1c2ccccc2c(CSC(=N)N)c2ccccc12	10.6	24.1	13.4	51.6	18	41.3	4.04	20.5	11.7	35.5	5.25	24.2	3.13	26.7	5.75	34.3	9.35	24	2.56	16.8
COCCNc1ccc2c3c(cccc13)C(=O)N(CCN(C)C)C2=O	7.16	23.1	6.23	> 25	8.24	> 25	8.04	> 25	11.8	> 25	6.31	21.1	8.71	> 25	9.38	> 25	9.13	> 25	5.27	15
CC1=NN(c2ccc(S(=O)(=O)O)cc2)C(=O)/C1=C/c1ccc(Cl)cc1		> 100		> 100		> 100		> 100		> 100		> 100		> 100		> 100		> 100		> 100
CCCc1cc(=O)n2c(C(=O)Nc3cccc(C(=O)OCC)c3)c(C(=O)Nc3ccc(F)cc3)sc2n1	133	> 140	> 140	> 140	6.83	27.6	66.3	> 140	3.27	20.9	44.6	> 140	3.55	48.6	1.3	6.37	1.43	5.25	6.2	> 140
COc1ccc(Cn2cc3c(c2-c2ccccc2)CCc2cnoc2-3)cc1OC	26.3	> 100	1.66	> 100	0.735	> 100	1.46	> 100	3.56	> 100	0.34	> 100	0.774	> 100	0.564	6.94	2.24	> 100	3.16	> 100
C[C@@H]1CCC([C@@H](C)[C@H]2CC[C@H]3[C@@H]4CC[C@H]5C[C@@H](O)CC[C@]5(C)[C@H]4CC[C@]23C)=NC1		> 77.3		> 100		34.8		> 100		> 100		> 43.6		> 86.4		> 100		> 56.2		> 20.4
CCCCCCCCC/C(=N\NC(=O)c1ccncc1)c1ccc(O)c(O)c1O	0.384	> 100	0.244	> 100	0.521	> 100	0.393	29.1	0.12	18	0.307	> 100	0.11	65.9		> 100	0.216	5.75	0.195	31.5
N/C(=N/N=C/c1ccccc1)N/N=C\c1ccccc1	10.7	33.3	7.59	> 100	3.58	43.9	6.78	> 100	19.6	> 100	3.96	32.4	5.08	70.9	3.73	42.5	5.2	43.9	5.21	29.7
O=C1C=CC(=O)c2c1ccc1c3ccccc3n(-c3ccccc3)c21		14.4		28.7		26.6		34.1		27.2		22.2		43.7		60.5		33		4.59
COc1ccc(Nc2cc(C)nc(NCc3ccccc3)n2)cc1	2.39	6.97	3.3	18.6	6.34	23.8	3.55	16.3	2.42	19.3	2.57	15.3	3.13	14.3	11	39.2	3.49	17.6	1.81	7.41
C=C1C(=O)O[C@H]2C[C@@H]1CC/C(C)=C/CC/C(C)=C/CC[C@@]2(C)O	37.2	> 100	> 100	> 100	46.7	> 100	7.51	> 100	> 100	> 100	> 100	> 100	53	> 100	48	> 100	43.4	> 100	20.4	43.5

— PubChem BioAssay (NCI)
